Data published in EPA's CvTdb concentration-time database.

Experiments:
Rat [1] = assay: concentration in plasma after dosing; details: 3 h; dosed: Primidone; 80 mg/kg; oral; Male; F344
Rat [2] = assay: concentration in plasma after dosing; details: 12 h; dosed: Primidone; 80 mg/kg; oral; Female; Harlan Sprague-Dawley
Mouse [3] = assay: concentration in plasma after dosing; details: 3 h; dosed: 2-Hydroxy-4-methoxybenzophenone; 50 mg/kg; iv; Male; B6C3F1
Rat [4] = assay: concentration in plasma after dosing; details: 10 min; dosed: 2-Hydroxy-4-methoxybenzophenone; 100 mg/kg; oral; Male; F344
Rat [5] = assay: concentration in plasma after dosing; details: dosed: 2-Hydroxy-4-methoxybenzophenone, 250 mg/kg, oral, Male, F344
Rat [6] = assay: concentration in plasma after dosing; details: dosed: 2-Hydroxy-4-methoxybenzophenone, 500 mg/kg, oral, Male, F344
Mouse [7] = assay: concentration in plasma after dosing; details: 3 h; dosed: 2-Hydroxy-4-methoxybenzophenone; 50 mg/kg; iv; Female; B6C3F1
Mouse [8] = assay: concentration in plasma after dosing; details: 0.25 h; dosed: 2-Hydroxy-4-methoxybenzophenone; 500 mg/kg; oral; Female; B6C3F1
Mouse [9] = assay: concentration in plasma after dosing; details: 2.5 min; dosed: 2-Hydroxy-4-methoxybenzophenone; 250 mg/kg; oral; Female; B6C3F1
Rat [10] = assay: concentration in plasma after dosing; details: dosed: Methyleugenol, 37 mg/kg, iv, Male, F344
Rat [11] = assay: concentration in plasma after dosing; details: dosed: Methyleugenol, 37 mg/kg, oral, Female, F344/N
Rat [12] = assay: concentration in plasma after dosing; details: dosed: Methyleugenol, 37 mg/kg, iv, Male, F344; remark: listed apart in the source
Rat [13] = assay: concentration in plasma after dosing; details: dosed: Methyleugenol, 37 mg/kg, oral, Male, F344/N
Mouse [14] = assay: concentration in plasma after dosing; details: dosed: 2,4-Dichlorophenoxyacetic acid, 1.0 mg/kg, iv, Male, B6C3F1
Rat [15] = assay: concentration in plasma after dosing; details: dosed: 2,4-Dichlorophenoxyacetic acid, 7.0 mg/kg, oral, Male, Sprague-Dawley
Rat [16] = assay: concentration in brain after dosing; details: 1.5 h; dosed: alpha-Thujone; 25 mg/kg; oral; Male; Harlan Sprague Dawley
Rat [17] = assay: concentration in brain after dosing; details: 2 min; dosed: alpha-Thujone; 50 mg/kg; oral; Male; Harlan Sprague Dawley
Rat [18] = assay: concentration in brain after dosing; details: 10 min; dosed: alpha-Thujone; 25 mg/kg; oral; Male; Harlan Sprague Dawley
Rat [19] = assay: concentration in brain after dosing; details: 10 min; dosed: alpha-Thujone; 50 mg/kg; oral; Female; Harlan Sprague Dawley
Rat [20] = assay: concentration in brain after dosing; details: 10 min; dosed: alpha-Thujone; 25 mg/kg; oral; Male; Harlan Sprague Dawley; remark: listed apart in the source
Rat [21] = assay: concentration in plasma after dosing; details: 2 min; dosed: alpha-Thujone; 50 mg/kg; oral; Female; Harlan Sprague Dawley
Rat [22] = assay: concentration in plasma after dosing; details: 3 h; dosed: alpha-Thujone; 50 mg/kg; oral; Female; Harlan Sprague Dawley
Rat [23] = assay: concentration in plasma after dosing; details: 3 h; dosed: alpha-Thujone; 25 mg/kg; oral; Male; Harlan Sprague Dawley
Rat [24] = assay: concentration in plasma after dosing; details: 0.5 h; dosed: alpha-Thujone; 25 mg/kg; oral; Male; Harlan Sprague Dawley
Rat [25] = assay: concentration in liver after dosing; details: 96 h; dosed: Perfluorohexane-1-sulphonic acid – potassium salt; 16 mg/kg; oral; Female; Harlan Sprague Dawley
Rat [26] = assay: concentration in liver after dosing; details: 48 h; dosed: Perfluorohexane-1-sulphonic acid – potassium salt; 16 mg/kg; oral; Female; Harlan Sprague Dawley
Rat [27] = assay: concentration in liver after dosing; details: 24 h; dosed: Perfluorohexane-1-sulphonic acid – potassium salt; 16 mg/kg; oral; Female; Harlan Sprague Dawley
Rat [28] = assay: concentration in kidney after dosing; details: 12 h; dosed: Perfluorohexane-1-sulphonic acid – potassium salt; 16 mg/kg; oral; Female; F344
Rat [29] = assay: concentration in kidney after dosing; details: 24 h; dosed: Perfluorohexane-1-sulphonic acid – potassium salt; 16 mg/kg; oral; Female; Harlan Sprague Dawley
Rat [30] = assay: concentration in kidney after dosing; details: 6 h; dosed: Perfluorohexane-1-sulphonic acid – potassium salt; 16 mg/kg; oral; Female; F344
Rat [31] = assay: concentration in plasma after dosing; details: 40 h; dosed: Pyridine; 100 mg/kg; oral; Male; F344
Rat [32] = assay: concentration in plasma after dosing; details: 20 min; dosed: Pyridine; 10 mg/kg; oral; Female; Harlan Sprague-Dawley
Rat [33] = assay: concentration in plasma after dosing; details: dosed: Pyridine, 5 mg/kg, iv, Male, F344
Rat [34] = assay: concentration in plasma after dosing; details: 10 min; dosed: Pyridine; 10 mg/kg; oral; Male; F344
Rat [35] = assay: concentration in plasma after dosing; details: dosed: Pyridine, 5 mg/kg, iv, Male, F344; remark: listed apart in the source

CCC1(c2ccccc2)C(=O)NCNC1=O [Primidone]
Details | concentration in plasma [ng/mL]
Rat [1] | 37200
Rat [2] | 1400

O=C(c1ccccc1)c1ccc(O)cc1O [2,4-Dihydroxybenzophenone]
Details | concentration in plasma [ng/mL]
Mouse [3] | 232
Mouse [7] | 32.7
Mouse [8] | 2690
Mouse [9] | 53.1
Rat [4] | 91

concentration in plasma [ng/mL]
Details | 0.25 h | 4 h | 10 h | 10 min
Rat [5] | 83 | 121 | – | –
Rat [6] | – | – | 107 | 78.6

C=CCc1ccc(OC)c(OC)c1 [Methyleugenol]
Details | concentration in plasma [ng/mL]
Rat [10], 0.5 h | 4010
Rat [10], 0.75 h | 2000
Rat [11], 5 h | 16.9
Rat [11], 5 min | 211
Rat [12], 0.5 h | 3440
Rat [12], 0.75 h | 3090
Rat [13], 2 min | 8.3
Rat [13], 4 h | 11.2

O=C(O)COc1ccc(Cl)cc1Cl [2,4-Dichlorophenoxyacetic acid]
concentration in plasma [ng/mL]
Details | Mouse [14] | Rat [15]
0.25 h | 7400 | 8070
0.5 h | 5390 | 14500
1 h | 5370 | –
2 h | 1290 | 4090
2.5 h | 211 | –
2.5 min | 7760 | 7170
3 h | 248 | 3180
4 h | – | 3720
5 h | – | 4480
5 min | 6530 | –
6 h | – | 1890
10 min | 9300 | 14700

CC(C)[C@]12CC(=O)[C@H](C)[C@H]1C2 [alpha-Thujone]
Details | concentration in brain [ng/g] | concentration in plasma [ng/mL]
Rat [16] | 234 | –
Rat [17] | 385 | –
Rat [18] | 1080 | –
Rat [19] | 1800 | –
Rat [20] | 731 | –
Rat [21] | – | 146
Rat [22] | – | 244
Rat [23] | – | 113
Rat [24] | – | 324

O=S(=O)([O-])C(F)(F)C(F)(F)C(F)(F)C(F)(F)C(F)(F)C(F)(F)F.[K+] [Perfluorohexane-1-sulphonic acid – potassium salt]
Details | concentration in kidney [ng/g] | concentration in liver [ng/g]
Rat [25] | – | 6730
Rat [26] | – | 14300
Rat [27] | – | 25700
Rat [28] | 35900 | –
Rat [29] | 24300 | –
Rat [30] | 39300 | –

c1ccncc1 [Pyridine]
Details | concentration in plasma [ng/mL]
Rat [31] | 18400
Rat [32] | 2070
Rat [34] | 4950

concentration in plasma [ng/mL]
Details | 0.05 h | 0.5 h | 4 h | 8 h
Rat [33] | 4210 | – | 2060 | –
Rat [35] | – | 3400 | – | 874
